Assay results as given in patent publication US6517856B1, “Insecticide resistance assay” (priority 1998, dated 2003).
Several values for one entry are separate records, joined by “and”; a condition that tells them apart may be missing. Equal values may be shown once.

What was measured:
[1] = system: tobacco budworm (H. virescens); assay: Feeding disruption assay, CryIAc in Trypan Blue diet (fresh diet); format: in vivo, Heliothis virescens
Protocol: The blue diet used in the feeding disruption bioassay is an agar based insect meal containing 20 mg of Trypan Blue (Direct Blue 14; Matheson Coleman & Bell, Norwood, Ohio) per 100 ml of standard artificial diet, and containing different concentrations of CryIAc (MVP, Mycogen). Larvae feeding on this colored diet produced blue feces which were easily distinguished by observation from feces derived from other food sources. Assays were conducted in 1-ounce clear plastic cups (Solo Cup Company, Urbana, Ill.; approximately […] in diameter and ¾ inches high) fitted with white cardboard tops, which are routinely used for insect rearing in the inventors' laboratories. The clear plastic allowed for the observation of blue feces without opening the container.
Third instars from Wake (Bt susceptible), YHD2 (Bt resistant), and YHD2×Wake hybrid strains of the tobacco budworm (H. virescens) were used. Instars weighed 30±5 mg and were reared either on standard artificial diet or cotton plants. Instars were starved for one hour and then transferred to clear plastic assay cups, one larvae per cup. The starvation treatment synchronized the beginning of feeding between individuals once transferred to the dye-containing diet. The effect of different concentrations of CryIAc (0 to 0.064 μg CryIAc/ml diet) on the production of blue feces was examined for one to 24 hours at 27±1° C. and […] (light:dark). Studies were conducted in triplicate with 15 larvae per replicate. Once a diagnostic concentration and optimum assay time were identified from these experiments, the accuracy of resistance detection was investigated for individual resistant and susceptible neonates of H. virescens. These experiments were duplicated for 25 resistant and 25 susceptible budworms from two different budworm generations.
The diagnostic concentration for resistance detection was also investigated for its ability to distinguish Wake susceptible H. virescens from H. zea. In addition, dose response studies were conducted to identify a concentration of Bt that would distinguish resistant YHD2 neonates of H. virescens from H. zea. Dose response studies were duplicated for 25 resistant (HD2) tobacco budworms and 25 bollworms from two generations at different doses of Bt ranging from 0 to 1000 μg CryIAc/ml of blue diet.

[2] = system: Heliothis virescens neonates; assay: Feeding disruption bioassay on meal pads and diet cylinders (toxin incorporation, diet comparison); format: in vivo; conditions: for percentage of the population producing >5 fecal pellets: Hv Washington neonates, 0.04 μg MVP per ml diet, 24 h
Protocol: Feeding disruption bioassays follow the method Examples 1-9. Bioassay diets contain 20 mg of the dye Trypan Blue (Direct Blue 14; Matheson Coleman and Bell, Norwood, Ohio) per 100 ml of diet. The blue dye serves as a marker of fecal origin, with only larvae feeding on blue diet producing blue feces. All bioassay results were taken from two replicates consisting of 24 insects per replicate. Dead larvae (defined as no movement for 30 s after prodding with a blunt probe) at the assay endpoint (24 h) were discarded and not included in the results in order to avoid interpreting mortality as a non-feeding assay response. Assays were conducted in clear 8-well microtiter plate strips (Nalge Nunc Int., Napersville, Ill.). Strip caps were separated with a scalpel to allow individual removal, facilitating observation of individual wells while not allowing neighboring larvae to escape. A #3 insect pin was used to puncture each cap twice, which permitted ventilation in order to reduce condensation within wells and provide larvae with air.
The original bioassay method was modified by substituting 100 μl meal pads (diameter=6 mm) for fresh diets. Except where noted, toxins were incorporated into the meal pads by hydrating with aqueous solutions containing appropriate concentrations of the B. thuringiensis CryIAc formulation MVP (Mycogen, San Diego, Calif.). Serial MVP dilutions were used in each assay, with dilution series for each replicate of a treatment made on different days. Hydration of 100 μl meal pads was by pipetting two 40 μl aliquots (water volume=80 μl) in order to prevent pads from floating in the wells, as discussed above. Lyophilized diet cylinders (400 μl) were hydrated to original wet weight as previously described with an aqueous MVP dilution, resulting in a final concentration of 0.04 μg MVP per ml diet. After 1 h, cylinders were divided into 3 sections with a scalpel and individual sections were placed in 8-well microtiter strips, 1 section per well. The feeding disruption bioassay was then used to assess the diffusion of MVP through the cylinder using one larva per cylinder section. All bioassay concentrations reported are final diet concentrations, and not those of solutions used to hydrate meal pads.

H. virescens [3] = conditions: Gould et al. 1995; cited from earlier work
H. virescens [4] = assay: Seven day mortality assay on neonates, CryIAc in artificial diet
Protocol: Insects were reared in the laboratory at 27±1° C. with a 14:10 (light:dark) cycle on a standard artificial diet (Gould et al., 1995; Rose et al., 1995). The Wake strain of H. virescens used was originally collected in 1986 from tobacco in Wake county, N.C. The YHD2 strain was originally collected as eggs from seven tobacco fields in Yadkin County, N.C., in July of 1988. The YHD2 larvae were reared each generation for about seven days from egg hatch on 1000 μg of Bt toxin CryIAc (MVP, commercial grade, >98.0% δ endotoxin, Mycogen Corporation, San Diego) per ml of artificial diet and then transferred to insecticide-free diet for the remainder of development.
Mortality data were analyzed using probit analysis (PROC PROBIT, SAS 1991).

[5] = Wake third instars, 0.008 μg/ml, 24 hours
[6] = Wake third instars, 0.032 μg CryIAc/ml diet, 24 hours
[7] = Wake third instars, 0.032 μg CryIAc/ml, 4 hours
[8] = Wake third instars, 0.032 μg CryIAc/ml, 8 hours
[9] = YHD2 third instars, 0.008 μg/ml, 24 hours
[10] = YHD2 third instars, 0.032 μg CryIAc/ml diet, 24 hours
[11] = YHD2 third instars, 0.032 μg CryIAc/ml, 4 hours
[12] = YHD2 third instars, 0.032 μg CryIAc/ml, 8 hours
[13] = YHD2×Wake hybrid third instars, 0.032 μg/ml, 24 hours

Substance: CryIAc: Bacillus thuringiensis CryIAc δ-endotoxin, commercial formulation MVP (Mycogen), >98.0% δ endotoxin
- blue fecal pellets per larva [1, 5]: 4 /larva
- total blue fecal pellets [1, 5]: 63 fecal pellets/15 larvae
- blue fecal pellets per larva [1, 6]: 0.8 /larva
- total blue fecal pellets [1, 6]: 12 fecal pellets/15 larvae
- blue fecal pellets per larva [1, 7]: 0.1 /larva
- total blue fecal pellets [1, 7]: 1.6 fecal pellets/15 larvae
- blue fecal pellets per larva [1, 8]: 0.3 /larva
- total blue fecal pellets [1, 8]: 5 fecal pellets/15 larvae
- percentage of larvae that had produced blue feces ([1]; Wake third instars, 0.032 μg CryIAc/ml, after 14 hours, ±1 SE): 2.2±3.9%
- minimum fecal production by any individual ([1]; YHD2 neonates, 500 μg CryIAc/ml blue diet, 24 hours): five
- fecal pellets produced per 15 larvae ([1]; YHD2 third instars reared on cotton, 0.032 μg CryIAc/ml Blue diet, 24 hours): > 140 fecal pellets per 15 larvae
- blue fecal pellets per larva [1, 9]: 53 /larva
- total blue fecal pellets [1, 9]: 800 fecal pellets/15 larvae
- blue fecal pellets per larva [1, 10]: 31 /larva
- total blue fecal pellets [1, 10]: 470 fecal pellets/15 larvae
- blue fecal pellets per larva [1, 11]: 3 /larva
- total blue fecal pellets [1, 11]: 46 fecal pellets/15 larvae
- blue fecal pellets per larva [1, 12]: 9 /larva
- total blue fecal pellets [1, 12]: 129 fecal pellets/15 larvae
- percentage producing one or more blue fecal pellets ([1]; YHD2 third instars, 0.032 μg CryIAc/ml, in 5 hours, ±1 SE): 85±3.9%
- percentage producing one or more blue fecal pellets ([1]; YHD2 third instars, 0.032 μg CryIAc/ml, in 9 hours, ±1 SE): 95±3.9%
- percentage producing one or more blue fecal pellets ([1]; YHD2 third instars, 0.032 μg CryIAc/ml, in 14 hours, ±1 SE): 100.0±0.0%
- blue fecal pellets per larva [1, 13]: 5 /larva
- total blue fecal pellets [1, 13]: 68 fecal pellets/15 larvae
- percentage producing 0-2 fecal pellets in 24 h ([1]; laboratory susceptible H. virescens strain, 0.032 μg MVP per ml diet): 88.0%
- number of H. virescens producing six blue fecal pellets (the maximum) ([1]; susceptible (Wake) neonates, 0.032 μg CryIAc/ml diet, 24 hour): 1 out of 50
- blue feces production ([1]; susceptible (Wake) third instars reared on cotton, 0.032 μg CryIAc/ml Blue diet): Essentially no blue feces were produced
- percentage of the population producing >5 fecal pellets ([2]; 100 μl meal pads): 10.4%
- percentage of the population producing >5 fecal pellets ([2]; 400 μl cylinder, bottom section): 6.4%
- percentage of the population producing >5 fecal pellets ([2]; 400 μl cylinder, middle section): 4.2%
- percentage of the population producing >5 fecal pellets ([2]; 400 μl cylinder, top section): 6.3%
- stability in diet during the lyophilization process ([2]; judged by Hv 97 bioassay, 0.04 μg MVP per ml diet incorporated before lyophilization): apparently stable
- resistance of YHD2 strain to CryIAc compared to the Wake strain (H. virescens [3]): > 2000 fold
- LC50 (H. virescens [4]; Wake strain, neonates, seven day mortality): 0.0017 μg CryIAc/ml diet
- LC50 (H. virescens [4]; YHD2(female)×Wake(male) hybrid F1 larvae): 0.129 μg CryIAc/ml diet
- LC50 (H. virescens [4]; YHD2 strain, neonates, seven day mortality): 2952 μg CryIAc/ml diet and 2952.0 μg CryIAc/ml diet
